“And” between values parts separate entries of the source, which are not always exact repeats. Identical values can stand only once. Like-named read-outs stand apart in the source and are kept apart here.
Key:
[1] = test system: Plasmodium falciparum (3D7); experiment: Anti-malarial screening (SybrGreen parasite growth assay); format: cell-based; conditions: for inhibition at 10 µM: read-out: % inhibition (P. falciparum)
Experimental: a) Anti-malarial Screening:
Plasmodium falciparum (3D7; Malaria Research and Reference Reagent Resource Center ID NO: MRA-102) is cultured in the laboratory as per standard protocols [Moll K., Ljungström I., Perlmann H., Scherf A., and Wahlgren M., (Editors). Methods in Malaria Research. Joint publication by Malaria Research and Reference Reagent Resource Center (MR4), ATCC, USA and BioMalPar, EU. 2008]. Briefly, P. falciparum is cultured using 2% hematocrit washed RBCs, separated from freshly collected human blood, in RPMI media containing glutamine, sodium bicarbonate and antibiotics. Parasites are routinely synchronized using 5% sorbitol treatment. Anti-malarial screens are carried out in two stages: 1) a primary screen at a fixed concentration of 10 μM to find out % inhibition of growth; and 2) a dose assay for finding out the IC50 for hits identified from the primary screen. Assays are setup as follows. 200 μls of the diluted parasite culture (2% parasitemia and 2% hematocrit; at late ring stage), is added to each well in a 96 well plate pre-seeded with the compound of interest at the required concentration of 10 μM. The master stocks and dilutions of the compounds are prepared in cell culture grade DMSO. NOTE: DMSO only treatment control is done and the results are used for normalizing the data obtained from compound treatment. All compounds are plated in triplicates. Each 96 well plate also includes negative controls (compound untreated culture) and positive controls (standard anti-malarial treated culture). Standard anti-malarials used are chloroquine, artemisinine and atovaquone, each at 1 μM concentration. After plating, the culture is incubated in standard growth condition for 60 hours, after which the cultures are processed for testing the effect of compounds on parasite growth using SybrGreen staining and fluorescence measurements at […] emmission following excitation at 498 nm. Since only parasites have DNA (as RBCs are devoid of nucleus), the SybrGreen signal is a direct indictor of parasitemia in respective samples. Results are used to quantifying relative parasite growth (or conversely % inhibition of growth) in untreated, standard anti-malarial treated and test molecule treated P. falciparum cultures. […] Data from the preliminary screen (@ 10 μM only) along with data from the dose response experiment and IC50 values for the selected molecules are tabulated in Table-2.

T. gondii = experiment: Anti-toxoplasma screening (TgLuc+ luciferase growth assay in HFF host cells); format: cell-based, Toxoplasma gondii
From the text: b) Anti-toxoplasma Screening:
For screening bioactivity of test molecules against T. gondii, a transgenic line of the parasite (TgLuc+) expressing the luciferase gene is used [Edwin Kamau, Tracy Meehan, Mark D. Lavine, Gustavo Arrizabalaga, Gabriela Mustata Wilson and Jon Boyle. A Novel Benzodioxole-Containing Inhibitor of Toxoplasmagondii Growth Alters the Parasite Cell Cycle. Antimicrob Agents Chemother. 2011, 55(12): 5438-5451]. The parental parasite used to generate the TgLuc+ strain is aType I (RH) virulent strain (ATCC reference 50174D), which can also be used for in vivo studies in mice, if needed. The tachyzoite stage of the parasites are routinely cultured in the laboratory using standard protocols [Roos D S, Donald R G, Morrissette N S, Moulton A L. Molecular tools for genetic dissection of the protozoan parasite Toxoplasma gondii. Methods Cell Biol. 1994, 45:27-63]. In brief, a confluent monolayer of Human Foreskin Fibroblast (HFF; ATCC reference SCRS-1041) cells in culture are used as the host cells for infection with tachyzoitestage T. gondii. The culture media used to grow parasites is standard complete DMEM (Gibco BRL, USA) containing glucose (5.5 mM), glutamine (2 mM), Hepes (25 mM) and 1% dialyzed bovine fetal calf serum (Gibco BRL, USA). For bioactivity assays, the HFF cells are grown in 96 well plates and each well is infected with 1×10^4TgLuc+parasitesin the presence of 10 μM test molecules (in primary screens) in a total volume of 200 μL. After 2 days of incubation and growth in a 37° C. incubator maintaining 5% CO2, the 96 well plates are processed for luminescence measurements using the reagents in the luciferase assay kit (Promega, USA). The results are corrected for background (uninfected HFF cultures), and normalized against both positive (untreated parasite cultures) and negative (standard drug treated parasite cultures) to identify those molecules with % inhibition values >80% for further dose analysis and IC50 determination using a dilution series ranging from 10 μM to 1 nM. Data from the preliminary screen (@ 10 μM only) is shown in Table-1 and dose response experiments are underway.

[2] = dose response, dilution series 10 μM to 1 nM, 3D7, read-out: IC50(P. falciparum)
[3] = primary screen at 10 μM, 3D7, 60 hours incubation
[4] = primary screen at 10 μM, TgLuc+ tachyzoites in HFF cells, 2 days incubation
[5] = Plasmodium falciparum, 3D7, dose response, dilution series 10 μM to 1 nM, 3D7, read-out: IC50(P. falciparum)
[6] = Plasmodium falciparum, primary screen at 10 μM, 3D7, 60 hours incubation
[7] = Toxoplasma gondii, 48 h; primary screen at 10 μM, TgLuc+ tachyzoites in HFF cells, 2 days incubation
[8] = Plasmodium falciparum, 3D7, 60 h
[9] = Plasmodium falciparum, 3D7, read-out: IC50(P. falciparum, μM), dose response, dilution series 10 μM to 1 nM, 3D7

“1,1-dibenzyl-4,4-diphenyl-1λ4,4-azasilinan-2-ylium bromide [NDS 100953]” was tested, and the IC50 [1, 2] was 1.69 µM, the “% inhibition (P. falciparum)” value [1, 3] was 94.96% and the “% inhibition (T. gondii)” value (T. gondii; [4]) was 39%.
For “1-benzyl-1-ethyl-4,4-diphenyl-1λ4,4-azasilinan-2-ylium iodide [NDS 100952]”, the IC50 [1, 2] was 0.33 µM, the “% inhibition (P. falciparum)” value [1, 3] was 104.01% and the IC50 (T. gondii; dose response, dilution series 10 μM to 1 nM; read-out: IC50 (T gondii)) was 1240 nM. For the same compound, the “% inhibition (T. gondii)” value (T. gondii; [4]) was 72.06%.
Compound c1ccc(CN2CC[Si](c3ccccc3)(c3ccccc3)CC2)cc1 [NDS 100860] has an IC50 [1, 5] of 1.75 µM, an inhibition at 10 µM [1, 6] of 112% and an IC50 [1, 2] of 2.3 µM. The inhibition at 10 µM (T. gondii; [7]) was 99.4% and the IC50 (T. gondii; read-out: IC50 (T gondii); dose response, dilution series 10 μM to 1 nM) was 5030 nM and 2090 nM.
For C[N+]1(Cc2ccccc2)CC[Si](c2ccccc2)(c2ccccc2)CC1 [NDS 100861], the IC50 [1, 5] was 1.64 µM, the inhibition at 10 µM [1, 6] was 115% and the IC50 [1, 2] was 2.39 µM. The inhibition at 10 µM (T. gondii; [7]) was 36%.
For CC(C)=CC[N+]1(CC=C(C)C)CC[Si](c2ccccc2)(c2ccccc2)CC1 [NDS 101015, 1,1-bis(3-methylbut-2-en-1-yl)-4,4-diphenyl-1,4-azasilinan-1-ium bromide], the inhibition at 10 µM [1, 8] was 103%, the IC50 [1, 9] was 0.48 µM and the IC50 ([1]; read-out: IC50(P. falciparum), dose response, dilution series 10 μM to 1 nM, 3D7) was 0.29 µM. For the same compound, the inhibition at 10 µM (T. gondii; [7]) was 20%.
For c1ccc([Si]2(c3ccccc3)CC[N+]3(CCCCC3)CC2)cc1 [NDS 101017], the inhibition at 10 µM [1, 6] was 87.1%, the IC50 [1, 2] was 2.07 µM and 4.98 µM and the inhibition at 10 µM (T. gondii; [7]) was 0%.
For C=CC[N+]1(C)CC[Si](c2ccccc2)(c2ccccc2)CC1 [NDS 101039, 1-allyl-1-methyl-4,4-diphenyl-1,4-azasilinan-1-ium bromide], the inhibition at 10 µM [1, 8] was 76.2%, the IC50 [1, 9] was 7.11 µM and the inhibition at 10 µM (T. gondii; [7]) was 17%.
C[N+]1(C)CC[Si](c2ccccc2)(c2ccccc2)CC1 [NDS 101044, 1,1-dimethyl-4,4-diphenyl-1,4-azasilinan-1-ium iodide] showed an IC50 [1, 5] of 2.46 µM, an inhibition at 10 µM [1, 6] of 63.5% and an inhibition at 10 µM (T. gondii; [7]) of 0%.
